Measured values published in ChEMBL document CHEMBL1268847, “Discovery of orally bioavailable imidazo[1,2-a]pyrazine-based Aurora kinase inhibitors” (Bioorg Med Chem Lett, 2010).
≈ marks a conversion by molar mass, not a printed value.

Tests used:
[1] = molecular target: T1, Interleukin-1 receptor-associated kinase 4 (Homo sapiens, UniProt Q9NWZ3); assay: Inhibition of IRK4
T1 sequence (Q9NWZ3 whole entry): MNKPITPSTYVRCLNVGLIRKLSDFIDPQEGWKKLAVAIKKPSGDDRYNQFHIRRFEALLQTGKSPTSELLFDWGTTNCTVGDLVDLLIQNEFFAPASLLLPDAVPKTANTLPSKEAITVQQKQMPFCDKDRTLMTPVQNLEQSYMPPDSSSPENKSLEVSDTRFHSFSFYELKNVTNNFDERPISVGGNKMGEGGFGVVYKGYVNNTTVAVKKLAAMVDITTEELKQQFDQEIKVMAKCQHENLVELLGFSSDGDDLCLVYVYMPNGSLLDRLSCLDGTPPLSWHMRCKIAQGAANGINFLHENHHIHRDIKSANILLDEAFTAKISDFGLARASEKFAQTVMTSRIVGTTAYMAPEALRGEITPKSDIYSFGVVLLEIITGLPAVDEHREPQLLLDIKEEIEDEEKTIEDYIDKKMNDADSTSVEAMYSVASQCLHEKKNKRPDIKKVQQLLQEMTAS

Canis familiaris [2] = assay: Half life in dog at 1 mg/kg, iv; format: ADME, organism-based, Canis lupus familiaris; parameters: dose 1 mg/kg, route intravenous; settings: in vivo
A2780 [3] = assay: Antitumor activity against human A2780 cells xenografted in nu/nu mouse assessed as tumor growth inhibition at 45 mg/kg, po bid for 5 days relative to untreated control; format: functional; settings: A2780, 120 h, read-out: TGI
Canis familiaris [4] = assay: Volume of distribution at steady state in dog at 1 mg/kg, iv; format: ADME, organism-based, Canis lupus familiaris; parameters: dose 1 mg/kg, route intravenous; settings: in vivo
[5] = molecular target: Vascular endothelial growth factor receptor 2 (Homo sapiens, UniProt P35968); assay: Inhibition of VEGFR2
[6] = Clearance in rat at 10 mg/kg, iv; format: ADME, organism-based; parameters: dose 10 mg/kg, route intravenous; settings: in vivo
[7] = Volume of distribution at steady state in rat at 10 mg/kg, iv; format: ADME, organism-based; parameters: dose 10 mg/kg, route intravenous; settings: in vivo, read-out: Vdss
A2780 [8] = assay: Antitumor activity against human A2780 cells xenografted in nu/nu mouse assessed as tumor growth inhibition at 67.5 mg/kg, po bid for 3 days relative to untreated control; format: functional; settings: A2780, 72 h, read-out: TGI
[9] = Oral bioavailability in mouse at 50 mg/kg, po; format: ADME, organism-based; settings: in vivo
[10] = molecular target: Tyrosine-protein kinase JAK2 (Homo sapiens, UniProt O60674); assay: Inhibition of JAK2
[11] = Half life in mouse at 3 mg/kg, iv; format: ADME, organism-based; parameters: dose 3 mg/kg, route intravenous; settings: in vivo
[12] = Oral bioavailability in rat at 30 mg/kg, po; format: ADME, organism-based; settings: in vivo
[13] = Solubility in 20 mM acetate buffer at pH 4.0; format: physicochemical
[14] = AUC (0-infinity) in mouse at 50 mg/kg, po; format: ADME, organism-based; parameters: time infinity, dose 50 mg/kg, route oral; settings: plasma
[15] = AUC (0-infinity) in rat at 30 mg/kg, po; format: ADME, organism-based; parameters: time infinity, dose 30 mg/kg, route oral; settings: plasma
[16] = Inhibition of Aurora kinase assessed as reduction histone H3 Ser10 phosphorylation by cell based assay
A2780 [17] = assay: Antitumor activity against human A2780 cells xenografted in nu/nu mouse assessed as tumor growth inhibition at 90 mg/kg, po bid for 3 days relative to untreated control; format: functional; settings: A2780, 72 h, read-out: TGI
[18] = Half life in rat at 10 mg/kg, iv; format: ADME, organism-based; parameters: dose 10 mg/kg, route intravenous; settings: in vivo
[19] = Volume of distribution at steady state in mouse at 3 mg/kg, iv; format: ADME, organism-based; parameters: dose 3 mg/kg, route intravenous; settings: in vivo, read-out: Vdss
A2780 [20] = assay: Antitumor activity against human A2780 cells assessed as inhibition of cell survival; format: functional, cell-based
[21] = AUC (0-6 hrs) in rat at 10 mg/kg, po; format: ADME, organism-based; parameters: time < 6 hr, dose 10 mg/kg, route oral; settings: plasma
Aurora kinase A = molecular target: T2, Aurora kinase A (Homo sapiens, UniProt O14965); assay: Inhibition of Aurora A
T2 sequence (O14965 whole entry): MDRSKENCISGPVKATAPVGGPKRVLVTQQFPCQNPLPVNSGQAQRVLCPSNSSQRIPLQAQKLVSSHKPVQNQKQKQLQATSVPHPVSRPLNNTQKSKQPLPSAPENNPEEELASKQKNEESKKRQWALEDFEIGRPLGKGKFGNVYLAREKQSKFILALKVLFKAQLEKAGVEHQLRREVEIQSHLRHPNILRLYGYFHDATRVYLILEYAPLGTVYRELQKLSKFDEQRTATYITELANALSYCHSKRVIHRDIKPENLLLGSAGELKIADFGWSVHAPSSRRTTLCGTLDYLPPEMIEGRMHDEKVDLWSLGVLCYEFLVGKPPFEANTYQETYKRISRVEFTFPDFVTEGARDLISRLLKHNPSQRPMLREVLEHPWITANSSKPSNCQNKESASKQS

A2780 [22] = assay: Antitumor activity against human A2780 cells xenografted in nu/nu mouse assessed as tumor growth inhibition administered twice daily for 3 or 5 days; format: functional, cell-based
[23] = molecular target: T3, Serine/threonine-protein kinase Chk1 (Homo sapiens, UniProt O14757); assay: Inhibition of CHK1
T3 sequence (O14757 whole entry): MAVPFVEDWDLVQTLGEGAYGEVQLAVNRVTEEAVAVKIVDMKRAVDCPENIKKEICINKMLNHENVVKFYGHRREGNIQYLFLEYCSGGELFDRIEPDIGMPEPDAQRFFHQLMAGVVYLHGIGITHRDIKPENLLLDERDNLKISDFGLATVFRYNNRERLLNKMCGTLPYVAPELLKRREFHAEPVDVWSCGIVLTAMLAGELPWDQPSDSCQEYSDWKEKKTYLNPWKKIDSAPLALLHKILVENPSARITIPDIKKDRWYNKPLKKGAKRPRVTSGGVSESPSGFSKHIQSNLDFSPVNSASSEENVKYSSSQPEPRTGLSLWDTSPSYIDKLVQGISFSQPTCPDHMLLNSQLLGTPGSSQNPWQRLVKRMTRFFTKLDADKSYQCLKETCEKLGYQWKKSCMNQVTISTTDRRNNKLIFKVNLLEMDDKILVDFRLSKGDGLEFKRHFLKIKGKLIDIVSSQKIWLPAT

Canis familiaris [24] = assay: Oral bioavailability in dog at 10 mg/kg, po; format: ADME, organism-based, Canis lupus familiaris; settings: in vivo
Aurora kinase B = Aurora kinase B (Homo sapiens, UniProt Q96GD4); assay: Inhibition of Aurora B
[25] = molecular target: Ribosomal protein S6 kinase alpha-3 (Homo sapiens, UniProt P51812); assay: Inhibition of RSK2
Canis familiaris [26] = assay: AUC (0-infinity) in dog at 10 mg/kg, po; format: ADME, organism-based, Canis lupus familiaris, Plasma; parameters: time infinity, dose 10 mg/kg, route oral; settings: in vivo
[27] = AUC (0-infinity) in rat at 10 mg/kg, iv; format: ADME, organism-based; parameters: time infinity, dose 10 mg/kg, route intravenous; settings: plasma
A2780 [28] = assay: Antitumor activity against human A2780 cells assessed as inhibition of cell growth; format: functional, cell-based
[29] = molecular target: Tyrosine-protein kinase Lck (Homo sapiens, UniProt P06239); assay: Inhibition of LCK
[30] = AUC (0-infinity) in mouse at 3 mg/kg, iv; format: ADME, organism-based; parameters: time infinity, dose 3 mg/kg, route intravenous; settings: plasma
[31] = molecular target: Mitogen-activated protein kinase 1 (Homo sapiens, UniProt P28482); assay: Inhibition of ERK2
Canis familiaris [32] = assay: AUC (0-infinity) in dog at 1 mg/kg, iv; format: ADME, organism-based, Canis lupus familiaris, Plasma; parameters: time infinity, dose 1 mg/kg, route intravenous; settings: in vivo
[33] = Clearance in mouse at 3 mg/kg, iv; format: ADME, organism-based; parameters: dose 3 mg/kg, route intravenous; settings: in vivo

Vascular endothelial growth factor receptor 2, sequence (P35968 whole entry): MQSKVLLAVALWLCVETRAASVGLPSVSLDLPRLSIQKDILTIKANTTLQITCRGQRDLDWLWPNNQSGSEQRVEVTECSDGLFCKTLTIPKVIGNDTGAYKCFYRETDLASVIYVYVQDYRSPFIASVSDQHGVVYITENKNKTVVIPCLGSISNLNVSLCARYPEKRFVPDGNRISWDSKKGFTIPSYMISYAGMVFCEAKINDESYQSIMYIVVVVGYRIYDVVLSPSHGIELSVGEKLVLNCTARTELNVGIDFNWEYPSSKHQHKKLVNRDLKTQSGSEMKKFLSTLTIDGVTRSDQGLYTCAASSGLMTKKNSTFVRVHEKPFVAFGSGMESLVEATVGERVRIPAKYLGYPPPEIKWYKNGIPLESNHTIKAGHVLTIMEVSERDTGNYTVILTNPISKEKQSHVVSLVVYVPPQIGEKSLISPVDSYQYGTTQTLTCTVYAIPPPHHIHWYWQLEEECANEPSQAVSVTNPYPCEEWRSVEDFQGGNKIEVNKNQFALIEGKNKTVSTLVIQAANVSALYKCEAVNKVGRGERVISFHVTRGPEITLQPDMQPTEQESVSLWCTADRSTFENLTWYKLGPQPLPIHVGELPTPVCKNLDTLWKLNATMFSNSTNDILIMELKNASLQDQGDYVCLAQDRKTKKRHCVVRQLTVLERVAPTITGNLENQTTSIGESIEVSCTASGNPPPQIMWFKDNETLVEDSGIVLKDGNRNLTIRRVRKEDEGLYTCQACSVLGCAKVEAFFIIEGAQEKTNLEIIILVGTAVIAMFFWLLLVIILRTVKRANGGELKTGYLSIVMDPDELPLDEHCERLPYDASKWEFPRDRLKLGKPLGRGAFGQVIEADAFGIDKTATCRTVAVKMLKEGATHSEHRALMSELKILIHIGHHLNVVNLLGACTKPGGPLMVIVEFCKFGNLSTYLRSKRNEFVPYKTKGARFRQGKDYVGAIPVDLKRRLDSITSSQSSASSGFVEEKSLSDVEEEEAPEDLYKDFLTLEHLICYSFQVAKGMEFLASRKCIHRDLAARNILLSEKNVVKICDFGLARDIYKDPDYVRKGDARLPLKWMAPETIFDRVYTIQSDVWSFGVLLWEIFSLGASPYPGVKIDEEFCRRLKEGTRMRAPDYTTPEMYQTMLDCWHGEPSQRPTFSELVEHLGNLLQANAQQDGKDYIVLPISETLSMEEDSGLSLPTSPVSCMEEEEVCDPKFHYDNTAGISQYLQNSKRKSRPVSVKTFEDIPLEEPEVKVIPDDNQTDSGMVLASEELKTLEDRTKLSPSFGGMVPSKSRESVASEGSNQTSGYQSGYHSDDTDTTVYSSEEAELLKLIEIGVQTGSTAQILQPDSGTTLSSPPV
Tyrosine-protein kinase JAK2, sequence (O60674 whole entry): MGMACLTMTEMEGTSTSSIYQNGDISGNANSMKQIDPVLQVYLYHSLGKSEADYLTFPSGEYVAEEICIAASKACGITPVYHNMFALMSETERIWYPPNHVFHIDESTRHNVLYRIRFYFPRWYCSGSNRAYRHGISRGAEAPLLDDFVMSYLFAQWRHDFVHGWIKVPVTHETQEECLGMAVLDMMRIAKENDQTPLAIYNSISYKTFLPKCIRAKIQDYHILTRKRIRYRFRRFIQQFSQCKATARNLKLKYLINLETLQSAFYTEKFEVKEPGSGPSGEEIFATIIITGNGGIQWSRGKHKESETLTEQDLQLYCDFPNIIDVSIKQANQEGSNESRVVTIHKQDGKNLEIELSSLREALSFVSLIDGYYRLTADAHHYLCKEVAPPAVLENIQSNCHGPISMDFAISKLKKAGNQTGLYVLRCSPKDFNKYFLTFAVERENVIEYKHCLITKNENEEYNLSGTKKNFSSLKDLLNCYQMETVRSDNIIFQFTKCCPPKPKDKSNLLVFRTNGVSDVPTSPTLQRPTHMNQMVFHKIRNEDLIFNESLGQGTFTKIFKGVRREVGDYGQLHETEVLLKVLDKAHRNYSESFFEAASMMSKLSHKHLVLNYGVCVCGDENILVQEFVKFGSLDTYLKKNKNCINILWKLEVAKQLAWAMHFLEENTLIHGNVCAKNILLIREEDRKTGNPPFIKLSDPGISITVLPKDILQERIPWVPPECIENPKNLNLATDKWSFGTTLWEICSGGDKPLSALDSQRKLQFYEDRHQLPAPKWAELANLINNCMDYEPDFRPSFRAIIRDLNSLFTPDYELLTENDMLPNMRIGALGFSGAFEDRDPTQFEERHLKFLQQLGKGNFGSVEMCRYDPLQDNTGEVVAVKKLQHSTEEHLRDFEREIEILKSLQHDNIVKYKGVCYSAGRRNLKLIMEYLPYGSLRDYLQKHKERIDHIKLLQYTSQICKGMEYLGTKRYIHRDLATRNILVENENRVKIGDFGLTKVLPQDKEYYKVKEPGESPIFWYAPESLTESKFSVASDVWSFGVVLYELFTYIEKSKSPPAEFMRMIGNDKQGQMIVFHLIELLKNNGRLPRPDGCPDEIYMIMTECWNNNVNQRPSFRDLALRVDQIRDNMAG
Tyrosine-protein kinase Lck, sequence (P06239 whole entry): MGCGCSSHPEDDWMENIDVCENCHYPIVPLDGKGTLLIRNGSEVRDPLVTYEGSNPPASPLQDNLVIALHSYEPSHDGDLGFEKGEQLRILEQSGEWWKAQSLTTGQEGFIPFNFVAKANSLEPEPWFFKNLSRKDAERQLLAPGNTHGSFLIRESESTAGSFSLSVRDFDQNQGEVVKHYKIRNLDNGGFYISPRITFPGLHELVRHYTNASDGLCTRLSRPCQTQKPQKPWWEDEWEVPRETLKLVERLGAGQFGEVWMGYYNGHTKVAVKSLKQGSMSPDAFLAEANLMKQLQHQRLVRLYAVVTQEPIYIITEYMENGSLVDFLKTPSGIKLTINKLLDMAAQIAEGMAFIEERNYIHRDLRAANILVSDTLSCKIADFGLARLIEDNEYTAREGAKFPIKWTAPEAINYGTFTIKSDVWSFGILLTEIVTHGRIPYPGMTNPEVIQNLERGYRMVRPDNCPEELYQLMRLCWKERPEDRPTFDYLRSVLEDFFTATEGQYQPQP
Ribosomal protein S6 kinase alpha-3, sequence (P51812 whole entry): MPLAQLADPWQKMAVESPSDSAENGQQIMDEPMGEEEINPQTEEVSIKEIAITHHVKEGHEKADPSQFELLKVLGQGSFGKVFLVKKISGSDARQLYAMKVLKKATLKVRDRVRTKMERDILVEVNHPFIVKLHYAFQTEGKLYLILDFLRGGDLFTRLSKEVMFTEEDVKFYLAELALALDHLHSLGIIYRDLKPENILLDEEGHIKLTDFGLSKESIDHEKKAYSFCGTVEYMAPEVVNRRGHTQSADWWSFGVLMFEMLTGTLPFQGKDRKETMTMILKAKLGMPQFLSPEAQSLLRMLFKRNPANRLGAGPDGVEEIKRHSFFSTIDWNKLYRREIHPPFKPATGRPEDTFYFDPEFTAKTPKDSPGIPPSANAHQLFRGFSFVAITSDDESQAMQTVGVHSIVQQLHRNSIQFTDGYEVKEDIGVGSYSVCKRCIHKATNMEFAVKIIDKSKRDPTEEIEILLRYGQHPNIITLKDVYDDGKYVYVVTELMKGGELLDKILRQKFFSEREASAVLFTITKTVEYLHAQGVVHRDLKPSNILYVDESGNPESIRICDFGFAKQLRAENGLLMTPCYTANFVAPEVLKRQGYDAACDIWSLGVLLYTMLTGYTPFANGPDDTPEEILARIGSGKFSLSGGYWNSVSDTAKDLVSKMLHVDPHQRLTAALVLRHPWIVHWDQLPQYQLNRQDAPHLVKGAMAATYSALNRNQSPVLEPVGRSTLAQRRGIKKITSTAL
Mitogen-activated protein kinase 1, sequence (P28482 whole entry): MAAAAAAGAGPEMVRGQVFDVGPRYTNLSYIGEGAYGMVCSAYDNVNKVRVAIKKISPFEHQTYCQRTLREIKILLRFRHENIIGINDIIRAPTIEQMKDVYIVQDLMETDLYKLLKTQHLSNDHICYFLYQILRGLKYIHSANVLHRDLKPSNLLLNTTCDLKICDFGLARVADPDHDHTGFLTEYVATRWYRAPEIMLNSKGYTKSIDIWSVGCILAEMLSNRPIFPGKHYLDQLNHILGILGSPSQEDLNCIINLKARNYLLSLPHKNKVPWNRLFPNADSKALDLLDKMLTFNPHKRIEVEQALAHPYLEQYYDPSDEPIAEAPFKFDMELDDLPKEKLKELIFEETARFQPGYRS
Aurora kinase B, sequence (Q96GD4 whole entry): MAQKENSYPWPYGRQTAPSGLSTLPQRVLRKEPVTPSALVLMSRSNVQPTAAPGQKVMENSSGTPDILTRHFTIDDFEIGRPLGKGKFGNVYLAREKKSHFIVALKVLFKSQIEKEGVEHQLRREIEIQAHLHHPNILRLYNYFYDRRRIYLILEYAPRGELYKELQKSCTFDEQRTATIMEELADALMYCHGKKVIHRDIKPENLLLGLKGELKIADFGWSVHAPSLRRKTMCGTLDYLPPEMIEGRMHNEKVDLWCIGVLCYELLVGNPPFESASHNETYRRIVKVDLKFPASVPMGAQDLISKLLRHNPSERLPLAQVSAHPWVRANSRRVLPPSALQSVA

Compound: Cc1cn2c(-c3cn[nH]c3)cnc2c(Nc2cc([C@@H](C)N3C[C@@H](C)O[C@@H](C)C3)ns2)n1
- IC50 [1]: 1800 nM
- t1/2 (Canis familiaris [2]): 4.8 h
- inhibition in vivo at 45 mg/kg (A2780 [3]): 41%
- Vdss (Canis familiaris [4]): 12 L/kg
- IC50 [5]: 710 nM
- clearance [6]: 10 mL/min/kg
- Vd [7]: 1.6 L/kg
- inhibition in vivo at 67.5 mg/kg (A2780 [8]): 67%
- bioavailability [9]: 92%
- IC50 [10]: > 10 nM
- half-life [11]: 3.9 h
- bioavailability [12]: 72%
- solubility [13]: 4660 µg/mL (≈ 10.6 mM)
- AUC(0-inf) [14]: 86.4 µM·h
- AUC(0-inf) [15]: 57.7 µM·h
- EC50 [16]: 28 nM
- inhibition in vivo at 90 mg/kg (A2780 [17]): 79%
- half-life [18]: 5 h
- Vd [19]: 1.5 L/kg
- EC50 (A2780 [20]): 20 nM
- AUC(0-t) at 6 h [21]: 4.6 µM·h
- IC50 (Aurora kinase A): ≤ 4 nM
- TGI (A2780 [22]): Dose-dependent effect
- IC50 [23]: 140 nM
- F (Canis familiaris [24]): 50%
- IC50 (Aurora kinase B): ≤ 13 nM
- IC50 [25]: 330 nM
- AUC (Canis familiaris [26]): 2.2 µM·h
- AUC(0-inf) [27]: 38.8 µM·h
- EC50 (A2780 [28]): 19 nM
- IC50 [29]: 510 nM
- AUC(0-inf) [30]: 5.6 µM·h
- IC50 [31]: > 10 nM
- AUC (Canis familiaris [32]): 3.4 µM·h
- clearance [33]: 20 mL/min/kg
